Experiments:
Z-138 cells [1] = experiment: Z-138 Methylation Assay (In Cell Western for symmetric di-methyl arginine and DNA content); assay type: cell-based; conditions: Homo sapiens
Outline: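 Symmetric di-methyl arginine signal (800 nm) ratioed to DNA content (700 nm) by In Cell Western after four days of compound treatment of Z-138 suspension cells seeded at 50,000 cells/mL. Percent inhibition set between DMSO and 3 μM reference wells; IC50 curves from triplicates.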

Z-138 cells [2] = experiment: Z-138 Proliferation Assay (Cell Titer Glo, 5 days); assay type: cell-based; conditions: Homo sapiens
Outline: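 Exponentially growing Z-138 cells (10,000 cells/ml) in RPMI 1640 with 10% FBS are exposed to nine-point 3-fold dilutions (final top concentration 20 μM, 0.2% DMSO) for 5 days at 37° C. Viability is measured as ATP by CellTiter-Glo luminescence. The 50% inhibitory concentration comes from a 4-parameter fit.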

[3] = Table A-2, 96 hours, symmetric di-methyl arginine, read-out: ICW EC50
[4] = 120 h, Table A-2, 5 days, top concentration 20 μM

SMILES	EC50 (Z-138 cells [1]; [3])	EC50 (Z-138 cells [1]; Table D-2, read-out: ICW EC50)	EC50 (Z-138 cells [2]; [4])	EC50 (Z-138 cells [2]; Table D-2)
O=C(COc1cccc(CN2CCOCC2)c1)NCC(O)CN1CCc2ccccc2C1 (stereo not shown) [Compound A75]	< 0.1 µM		1 to 10 µM	
C[C@H](Oc1cccc2cccnc12)C(=O)NC[C@H](O)CN1CCc2ccccc2C1 [Compound A76]	0.101 to 1 µM		1 to 10 µM	
O=C(COc1ccccc1N1CCOCC1)NC[C@H](O)CN1CCc2ccccc2C1 [Compound A77]	< 0.1 µM		1 to 10 µM	
O=C(COc1ccccc1N1CCNCC1)NCC(O)CN1CCc2ccccc2C1 (stereo not shown) [Compound A79]	0.101 to 1 µM		1 to 10 µM	
CN1C(=O)COc2cccc(OCC(=O)NCC(O)CN3CCc4ccccc4C3)c21 (stereo not shown) [Compound A80]	0.101 to 1 µM		10 to 50 µM	
CN1CCOc2cccc(OCC(=O)NCC(O)CN3CCc4ccccc4C3)c21 (stereo not shown) [Compound A81]	< 0.1 µM		0.101 to 1 µM	
Cn1ncc2c(OCC(=O)NCC(O)CN3CCc4ccccc4C3)cccc21 (stereo not shown) [Compound A82]	< 0.1 µM		1 to 10 µM	
O=C(COc1cccc(C(=O)N2CCOCC2)c1)NCC(O)CN1CCc2ccccc2C1 (stereo not shown) [Compound A83]	0.101 to 1 µM		10 to 50 µM	
CN1CCN(c2ccccc2OCC(=O)NC[C@H](O)CN2CCc3ccccc3C2)CC1 [Compound A84]	0.101 to 1 µM		1 to 10 µM	
O=C(COc1ccccc1OCCN1CCOCC1)NC[C@H](O)CN1CCc2ccccc2C1 [Compound A86]	0.101 to 1 µM		10 to 50 µM	
CN(C)CCOc1ccccc1OCC(=O)NC[C@H](O)CN1CCc2ccccc2C1 [Compound A88]	0.101 to 1 µM		10 to 50 µM	
CC(=O)N1CCN(c2ccccc2OCC(=O)NCC(O)CN2CCc3ccccc3C2)CC1 (stereo not shown) [Compound A90]	0.101 to 1 µM		10 to 50 µM	
O=C(COc1cccc2c1CCNC2)NCC(O)CN1CCc2ccccc2C1 (stereo not shown) [Compound A91]	0.101 to 1 µM		1 to 10 µM	
O=C(COc1cccc2nccnc12)NCC(O)CN1CCc2ccccc2C1 (stereo not shown) [Compound A92]	< 0.1 µM		1 to 10 µM	
O=C(COc1cccc(NC2CCOCC2)c1)NCC(O)CN1CCc2ccccc2C1 (stereo not shown) [Compound A93]	< 0.1 µM		1 to 10 µM	
O=C(COc1c(CN2CCOCC2)ccc2cccnc12)NC[C@H](O)CN1CCc2ccccc2C1 [Compound A94]	0.101 to 1 µM		10 to 50 µM	
O=C(COc1ccc2c(cnn2C2CCNC2)c1)NCC(O)CN1CCc2ccccc2C1 (stereo not shown) [Compound A95]	0.101 to 1 µM		10 to 50 µM	
Cn1cnc2ccc(-c3cccc(NCC(O)CN4CCc5ccccc5C4)c3)cc21 (stereo not shown) [Compound D102]		0.101 to 1 µM		1 to 10 µM

SMILES	EC50 (Z-138 cells [1]; [3])	EC50 (Z-138 cells [1]; Table D-2, read-out: ICW EC50)	EC50 (Z-138 cells [2]; [4])	EC50 (Z-138 cells [2]; Table D-2)
OC(COc1cccc(-c2ccc3ncn(C4CCOCC4)c3c2)c1)CN1CCc2ccccc2C1 (stereo not shown) [Compound D103]		0.101 to 1 µM		1 to 10 µM
OC(COc1cccc(-c2ccc3ncn(-c4ccccc4)c3c2)c1)CN1CCc2ccccc2C1 (stereo not shown) [Compound D104]		1 to 10 µM		> 20 µM
OC(COc1cccc(-c2ccc3ncn(Cc4ccccc4)c3c2)c1)CN1CCc2ccccc2C1 (stereo not shown) [Compound D105]		1 to 10 µM		10 to 40 µM
CN(CC(O)CN1CCc2ccccc2C1)c1cccc(CNC2CCOCC2)c1 (stereo not shown) [Compound D116]		1 to 10 µM		> 20 µM
Cn1cnc2ccc(-c3cccc(NCC(O)CN4CCc5ccccc5C4)n3)cc21 (stereo not shown) [Compound D117]		1 to 10 µM		> 20 µM
Cn1cnc2ccc(-c3ccnc(NCC(O)CN4CCc5ccccc5C4)c3)cc21 (stereo not shown) [Compound D118]		0.101 to 1 µM		1 to 10 µM
Cn1cnc2ccc(-c3ccnc(NCC(O)CN4CCc5ccccc5C4)n3)cc21 (stereo not shown) [Compound D119]		0.101 to 1 µM		1 to 10 µM
Cn1cnc2ccc(-c3cncc(NCC(O)CN4CCc5ccccc5C4)n3)cc21 (stereo not shown) [Compound D121]		0.101 to 1 µM		> 20 µM
OC(COc1cccc(-c2ccc(C(F)(F)F)cc2C(F)(F)F)c1)CN1CCc2ccccc2C1 (stereo not shown) [Compound D124]		10 to 40 µM		> 20 µM
OC(COc1cccc(-c2ccc(C(F)(F)F)cc2Cl)c1)CN1CCc2ccccc2C1 (stereo not shown) [Compound D127]		10 to 40 µM		> 20 µM
Cn1ncc2ccc(-c3cc(COCC(O)CN4CCc5ccccc5C4)on3)cc21 (stereo not shown) [Compound D136]		1 to 10 µM		> 20 µM
Cn1ccc2cnc(-c3cccc(OCC(O)CN4CCc5ccccc5C4)c3)nc21 (stereo not shown) [Compound D141]		0.101 to 1 µM		> 20 µM
O=C(Nc1cccc(OCC(O)CN2CCc3ccccc3C2)c1)c1cnccn1 (stereo not shown) [Compound D145]		1 to 10 µM		> 20 µM
CN1CCN(c2ccc(-c3cccc(OCC(O)CN4CCc5ccccc5C4)c3)cn2)CC1 (stereo not shown) [Compound D149]		1 to 10 µM		1 to 10 µM
Cn1nccc1C(=O)Nc1cccc(OCC(O)CN2CCc3ccccc3C2)c1 (stereo not shown) [Compound D160]		1 to 10 µM		> 20 µM
O=C(Nc1cccc(OCC(O)CN2CCc3ccccc3C2)c1)c1cncnc1 (stereo not shown) [Compound D161]		1 to 10 µM		> 20 µM
Cn1ccc(C(=O)Nc2cccc(OCC(O)CN3CCc4ccccc4C3)c2)n1 (stereo not shown) [Compound D162]		1 to 10 µM		> 20 µM
OC(COc1cccc(-c2ccccc2Oc2ccccc2)c1)CN1CCc2ccccc2C1 (stereo not shown) [Compound D167]		1 to 10 µM		> 20 µM

Now from value to compound, other results behind:

EC50 (Z-138 cells [1]; [3])	EC50 (Z-138 cells [1]; Table D-2, read-out: ICW EC50)	SMILES	EC50 (Z-138 cells [2]; [4])	EC50 (Z-138 cells [2]; Table D-2)
	1 to 10 µM	Cn1ncc2ccc(-c3cccc(OCC(O)CN4CCc5ccccc5C4)c3)cc21 (stereo not shown) [Compound D106]		> 20 µM
	1 to 10 µM	OC(COc1cccc(-c2ccc3[nH]ncc3c2)c1)CN1CCc2ccccc2C1 (stereo not shown) [Compound D107]		> 20 µM
	1 to 10 µM	Cn1ncc2cc(-c3cccc(OCC(O)CN4CCc5ccccc5C4)c3)ccc21 (stereo not shown) [Compound D108]		10 to 40 µM
	0.101 to 1 µM	O=c1[nH]c2ccc(-c3cccc(OCC(O)CN4CCc5ccccc5C4)c3)cc2[nH]1 (stereo not shown) [Compound D109]		10 to 40 µM
	0.101 to 1 µM	Cc1ccncc1-c1cccc(OCC(O)CN2CCc3ccccc3C2)c1 (stereo not shown) [Compound D113]		10 to 40 µM
	1 to 10 µM	CN(C)c1ncc(-c2cccc(OCC(O)CN3CCc4ccccc4C3)c2)cn1 (stereo not shown) [Compound D125]		10 to 40 µM
	1 to 10 µM	O=C(c1cccc(-c2cccc(OCC(O)CN3CCc4ccccc4C3)c2)c1)N1CCOCC1 (stereo not shown) [Compound D126]		> 20 µM
	1 to 10 µM	CS(=O)(=O)Nc1ccc(-c2cccc(OCC(O)CN3CCc4ccccc4C3)c2)cc1 (stereo not shown) [Compound D129]		10 to 40 µM
	1 to 10 µM	CS(=O)(=O)c1cccc(-c2cccc(OCC(O)CN3CCc4ccccc4C3)c2)c1 (stereo not shown) [Compound D130]		> 20 µM
	1 to 10 µM	CS(=O)(=O)c1ccccc1-c1cccc(OCC(O)CN2CCc3ccccc3C2)c1 (stereo not shown) [Compound D131]		> 20 µM
	1 to 10 µM	OC(COc1cccc(-c2ccccc2C(F)(F)F)c1)CN1CCc2ccccc2C1 (stereo not shown) [Compound D132]		> 20 µM
	1 to 10 µM	COc1ccc(Cl)cc1-c1cccc(OCC(O)CN2CCc3ccccc3C2)c1 (stereo not shown) [Compound D134]		> 20 µM
	> 20 µM	COC(=O)c1cccc(-c2cccc(OCC(O)CN3CCc4ccccc4C3)c2)c1 (stereo not shown) [Compound D135]		> 20 µM
	1 to 10 µM	CC(=O)c1ccc(-c2cccc(OCC(O)CN3CCc4ccccc4C3)c2)cc1 (stereo not shown) [Compound D137]		> 20 µM
	1 to 10 µM	Cc1ccc(F)c(-c2cccc(OCC(O)CN3CCc4ccccc4C3)c2)c1 (stereo not shown) [Compound D138]		> 20 µM
	1 to 10 µM	OC(COc1cccc(-c2cccnc2F)c1)CN1CCc2ccccc2C1 (stereo not shown) [Compound D139]		> 20 µM
	1 to 10 µM	Cn1ccc2ccc(-c3cccc(OCC(O)CN4CCc5ccccc5C4)c3)cc21 (stereo not shown) [Compound D147]		10 to 40 µM
	1 to 10 µM	O=C1NCc2ccc(-c3cccc(OCC(O)CN4CCc5ccccc5C4)c3)cc21 (stereo not shown) [Compound D148]		10 to 40 µM
	1 to 10 µM	CC(C)(C)OCc1cccc(-c2cccc(OCC(O)CN3CCc4ccccc4C3)c2)c1 (stereo not shown) [Compound D150]		> 20 µM
	1 to 10 µM	CN(C)c1ccc(-c2cccc(OCC(O)CN3CCc4ccccc4C3)c2)cc1 (stereo not shown) [Compound D151]		> 20 µM
	1 to 10 µM	NC(=O)c1ccc(-c2cccc(OCC(O)CN3CCc4ccccc4C3)c2)cc1 (stereo not shown) [Compound D152]		> 20 µM
	1 to 10 µM	O=C1COc2ccc(-c3cccc(OCC(O)CN4CCc5ccccc5C4)c3)cc2N1 (stereo not shown) [Compound D156]		10 to 40 µM
	10 to 40 µM	OC(COc1cccc(-c2ccc3cnoc3c2)c1)CN1CCc2ccccc2C1 (stereo not shown) [Compound D166]		> 20 µM
	10 to 40 µM	COc1ccc(-c2cccc(OCC(O)CN3CCc4ccccc4C3)c2)cc1Cl (stereo not shown) [Compound D168]		> 20 µM
	0.101 to 1 µM	CC(=O)Nc1cccc(-c2cccc(OCC(O)CN3CCc4ccccc4C3)c2)c1 (stereo not shown) [Compound D169]		> 20 µM
	1 to 10 µM	OC(COc1cccc(-c2csc3ccccc23)c1)CN1CCc2ccccc2C1 (stereo not shown) [Compound D170]		> 20 µM
	1 to 10 µM	NC(=O)c1cccc(-c2cccc(OCC(O)CN3CCc4ccccc4C3)c2)c1 (stereo not shown) [Compound D171]		> 20 µM
	1 to 10 µM	N#Cc1cccc(-c2cccc(OCC(O)CN3CCc4ccccc4C3)c2)c1 (stereo not shown) [Compound D172]		> 20 µM
	0.101 to 1 µM	Cn1cnc2ccc(-c3cccc(OC[C@H](O)CN4CCc5ccccc5C4)c3)cc21 [Compound D174]		1 to 10 µM
